One test addresses ITK (Homo sapiens (Human), UniProt Q08881). The experiment in a line: ITK inhibitor binding potency (LanthaScreen competitive binding assay). To be noted: read-out: ITK Inh. IC50. The procedure, abridged:
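TR-FRET tracer displacement: 10 nM GST-ITK, 2 nM Eu-anti-GST, 50 nM tracer-236 in HEPES pH 7.5, MgCl2, 2% DMSO; 11 points, 20 µM–0.34 nM. Run with or without 2 h compound–ITK preincubation before tracer; IC50 by 4-parameter fit of emission ratio.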
(In TR-FRET formats the signal depends on donor and acceptor labels being close together.)

Test [1] concerns JAK1/3 phosphorylation of its substrate, STAT5, at Y694. The experiment in a line: JAK1/3 target modulation assay (IL-2 stimulated STAT5 Y694 phosphorylation in PBMC). The format is cell-based. To be noted: Primary human peripheral blood mononuclear cells, IL-2 25 ng/mL, read-out: IL2-STAT5 Inh. IC50. In outline: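 Human PBMCs preincubated with compound for 1 h at 37 °C, then stimulated with IL-2 (25 ng/mL final) for 5 min. Cells were lysed and phospho-STAT5a,b (Y694) measured by MSD electrochemiluminescence immunoassay, single-plex or multiplex with total STAT5a,b.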

Test [2] has as its system ITK phosphorylation of its substrate, PLCγ1, at Y783. In words: ITK target modulation assay (PLCγ1 Y783 phosphorylation, anti-CD3 stimulated Jurkat T cells). The format is cell-based. To be noted: anti-CD3 Dynabeads stimulation, read-out: PLC-γ Inh. IC50. The procedure, abridged:
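Jurkat cells (400,000/well) were preincubated with compound for 1 h at 37 °C (0.1% DMSO final), then stimulated with anti-CD3 Dynabeads (bead:cell 2:1). Hypotonic lysates were dot-blotted and probed for phospho-PLCγ1 Y783 and total PLCγ1, with quantification by dual-channel infrared imaging.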

The target of a further test is JAK3 (Homo sapiens (Human), UniProt P52333). In words: JAK3 enzyme activity assay (Caliper mobility shift). In kind it is biochemical. Conditions: ATP at Km level; read-out: JAK3 Inh. IC50. In outline: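 Caliper mobility-shift assay with 2.5 nM JAK3, […] and […] (Km level) in 20 mM HEPES pH 7.5, 10 mM MgCl2, 0.01% BSA, 0.0005% Tween-20, 2% DMSO. 11-point dose-response from […] 0.34 nM; IC50 by 4-parameter logistic fit of product/substrate signal.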

Drawing on patent publication US12297203B2, “Pyrrolopyrimidine ITK inhibitors” (ACLARIS THERAPEUTICS, INC., priority 2018, dated 2025), this text covers IC50 for 18 compounds.

As usually defined, the IC50 is the midpoint of a concentration-inhibition curve.

Like-named read-outs stand apart in the source and are kept apart here.

ITK, sequence (Q08881 whole entry): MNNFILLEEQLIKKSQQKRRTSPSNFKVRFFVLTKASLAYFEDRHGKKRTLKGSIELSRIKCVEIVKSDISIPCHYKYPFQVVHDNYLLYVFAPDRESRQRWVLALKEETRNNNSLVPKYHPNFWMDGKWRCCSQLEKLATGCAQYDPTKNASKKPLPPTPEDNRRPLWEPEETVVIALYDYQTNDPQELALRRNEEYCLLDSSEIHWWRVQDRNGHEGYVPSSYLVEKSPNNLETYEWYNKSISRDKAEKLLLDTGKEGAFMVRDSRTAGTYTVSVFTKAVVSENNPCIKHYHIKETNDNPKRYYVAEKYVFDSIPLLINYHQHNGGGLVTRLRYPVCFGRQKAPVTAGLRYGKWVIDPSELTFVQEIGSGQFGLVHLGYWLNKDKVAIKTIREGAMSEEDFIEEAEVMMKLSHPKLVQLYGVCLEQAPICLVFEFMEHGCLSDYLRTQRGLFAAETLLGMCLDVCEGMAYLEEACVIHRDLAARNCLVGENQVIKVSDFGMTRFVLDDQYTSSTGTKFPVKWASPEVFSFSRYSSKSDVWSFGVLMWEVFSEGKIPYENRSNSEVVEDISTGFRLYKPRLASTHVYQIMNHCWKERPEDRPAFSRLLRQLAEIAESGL
JAK3, sequence (P52333 781-1124): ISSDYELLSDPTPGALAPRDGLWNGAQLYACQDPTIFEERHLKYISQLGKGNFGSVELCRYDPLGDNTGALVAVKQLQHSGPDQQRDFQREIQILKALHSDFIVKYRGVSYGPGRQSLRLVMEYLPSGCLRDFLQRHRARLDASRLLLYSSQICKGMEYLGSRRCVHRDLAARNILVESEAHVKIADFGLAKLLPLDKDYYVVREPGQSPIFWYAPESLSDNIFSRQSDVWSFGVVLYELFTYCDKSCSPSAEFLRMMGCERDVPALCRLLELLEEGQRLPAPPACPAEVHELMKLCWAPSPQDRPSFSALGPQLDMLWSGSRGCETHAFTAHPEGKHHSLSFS

With `C=CC(=O)N1CCC(Nc2cnc3[nH]cc(C(COC)C4CC4)c3c2)CC1` (stereo not drawn) [Example 101, 1-(4-((3-(1-cyclopropyl-2-methoxyethyl)-1H-pyrrolo[2,3-b]pyridin-5-yl)amino)piperidin-1-yl)prop-2-en-1-one], the IC50 on ITK is more than 100 nM; in test [1] (Homo sapiens, PBMC) it was more than 1000 nM; in test [2] (Homo sapiens, Jurkat) it was more than 1000 nM; at JAK3, more than 100 nM.
`C[C@H]1CC[C@@H](Nc2ncnc3[nH]cc(CC4CC4)c23)CN1C(=O)/C=C/CN(C)C` [Example 37, (E)-1-((2S,5R)-5-((5-(cyclopropylmethyl)-7H-pyrrolo[2,3-d]pyrimidin-4-yl)amino)-2-methylpiperidin-1-yl)-4-(dimethylamino)but-2-en-1-one]: the IC50 on ITK is not above 10 nM; in test [1] (Homo sapiens, PBMC), more than 1000 nM; in test [2] (Homo sapiens, Jurkat) it was 100 to 1000 nM; at JAK3, 10 to 100 nM.
On the same counts, the results for `C=CC(=O)N1CCC(Nc2cnc3[nH]cc(C(=O)C4CC4)c3c2)CC1` [Example 98, 1-(4-((3-(cyclopropanecarbonyl)-1H-pyrrolo[2,3-b]pyridin-5-yl)amino)piperidin-1-yl)prop-2-en-1-one] are more than 100 nM, more than 1000 nM, more than 1000 nM and 10 to 100 nM.
With `C=CC(=O)N1CCC[C@@H](Nc2ccnc3[nH]cc(CC4CC4)c23)C1` [Example 19, (R)-1-(3-((3-(cyclopropylmethyl)-1H-pyrrolo[2,3-b]pyridin-4-yl)amino)piperidin-1-yl)prop-2-en-1-one], the IC50 on ITK was not above 10 nM; in test [1] (Homo sapiens, PBMC), 100 to 1000 nM; in test [2] (Homo sapiens, Jurkat), not above 100 nM; at JAK3, not above 10 nM.
As to `C=CC(=O)N1CCC(Nc2cnc3[nH]cc(C(=O)C4CC4)c3n2)CC1` [Example 99, 1-(4-((7-(cyclopropanecarbonyl)-5H-pyrrolo[2,3-b]pyrazin-2-yl)amino)piperidin-1-yl)prop-2-en-1-one], the IC50 was 10 to 100 nM on ITK; not above 100 nM in test [1] (Homo sapiens, PBMC); more than 1000 nM in test [2] (Homo sapiens, Jurkat); not above 10 nM on JAK3.
On the same counts, the results for `C=CC(=O)N1CCC[C@@H](Nc2ncnc3[nH]cc(C(=O)C4CCCC4)c23)C1` [Example 6, (R)-1-(3-((5-(cyclopentanecarbonyl)-7H-pyrrolo[2,3-d]pyrimidin-4-yl)amino)piperidin-1-yl)prop-2-en-1-one] are not above 10 nM, more than 1000 nM, 100 to 1000 nM and 10 to 100 nM.
On to `C=CC(=O)N1C[C@H](Nc2ccnc3[nH]cc([C@@H]4CC4(F)F)c23)CC[C@@H]1C` (single isomer, unassigned) [Example 74], for which the concentration for half-maximal inhibition (IC50) is not above 10 nM at ITK; 100 to 1000 nM in test [1] (Homo sapiens, PBMC); 100 to 1000 nM in test [2] (Homo sapiens, Jurkat); not above 10 nM on JAK3.
Consider `C=CC(=O)N1C[C@H](Nc2ncnc3[nH]cc(C(=O)OC(C)(C)C)c23)CC[C@@H]1C` [Example 31, tert-butyl 4-(((3R,6S)-1-acryloyl-6-methylpiperidin-3-yl)amino)-7H-pyrrolo[2,3-d]pyrimidine-5-carboxylate], for which the IC50 on ITK is not above 10 nM; in test [1] (Homo sapiens, PBMC), 100 to 1000 nM; in test [2] (Homo sapiens, Jurkat), 100 to 1000 nM; on JAK3, not above 10 nM.
As to `C[C@H]1CC[C@@H](Nc2ncnc3[nH]cc([C@@H]4CC4(F)F)c23)CN1C(=O)/C=C/CN(C)C` (single isomer, unassigned) [Example 61], the IC50 on ITK was not above 10 nM; in test [1] (Homo sapiens, PBMC), more than 1000 nM; in test [2] (Homo sapiens, Jurkat), 100 to 1000 nM; at JAK3 it was 10 to 100 nM.
Take `C=CC(=O)N1C[C@H](Nc2ncnc3[nH]cc(CC4CC4)c23)CC[C@@H]1CC` (single isomer, unassigned) [Example 40]: the IC50 on ITK is more than 100 nM; in test [1] (Homo sapiens, PBMC), more than 1000 nM; in test [2] (Homo sapiens, Jurkat), more than 1000 nM; at JAK3, more than 100 nM.
For the compound `C=CC(=O)N1C[C@H](Nc2ncnc3[nH]cc([C@@H]4[C@@H](C)C4(F)F)c23)CC[C@@H]1C` (single isomer, unassigned) [Example 52], the IC50 at ITK was not above 10 nM; in test [1] (Homo sapiens, PBMC), 100 to 1000 nM; in test [2] (Homo sapiens, Jurkat), 100 to 1000 nM; on JAK3, not above 10 nM.
On to `C=CC(=O)N1C[C@H](Nc2ncnc3[nH]cc([C@H]4[C@H](C)C4(F)F)c23)CC[C@@H]1C` (single isomer, unassigned) [Example 56], for which the IC50 on ITK was not above 10 nM; in test [1], 100 to 1000 nM; in test [2] (Human Jurkat T cells) it was 100 to 1000 nM; at JAK3, not above 10 nM.
With `C=CC(=O)N1CCC[C@@H](Nc2ncnc3[nH]cc([C@]45CCC[C@H]4C5(F)F)c23)C1` (single isomer, unassigned) [Example 80], the half-inhibitory concentration (IC50) at ITK was 10 to 100 nM; in test [1] (Homo sapiens, PBMC), more than 1000 nM; in test [2] (Homo sapiens, Jurkat), more than 1000 nM; at JAK3, not above 10 nM.
Turning to `C=CC(=O)N1C[C@H](Nc2ncnc3[nH]cc([C@H]4[C@@H](C)C4(F)F)c23)CC[C@@H]1C` (single isomer, unassigned) [Example 55], the IC50 was not above 10 nM on ITK; not above 100 nM in test [1] (Homo sapiens, PBMC); 100 to 1000 nM in test [2] (Homo sapiens, Jurkat); not above 10 nM on JAK3.
As for `C=CC(=O)N1C[C@@H](Nc2ncnc3[nH]cc([C@@H]4CC4(F)F)c23)CC[C@H]1CC` (single isomer, unassigned) [Example 70], the half-inhibitory concentration (IC50) is not above 10 nM at ITK; 100 to 1000 nM in test [1] (Homo sapiens, PBMC); 100 to 1000 nM in test [2] (Homo sapiens, Jurkat); not above 10 nM at JAK3.
Turning to `C[C@H]1CC[C@@H](Nc2ncnc3[nH]cc([C@H]4CC4(F)F)c23)CN1C(=O)/C=C/CN(C)C` (single isomer, unassigned) [Example 60], the IC50 on ITK is not above 10 nM; in test [1] (Homo sapiens, PBMC) it was 100 to 1000 nM; in test [2] (Homo sapiens, Jurkat), not above 100 nM; at JAK3, not above 10 nM.
As for `C=CC(=O)N1CCC[C@@H](Nc2ncnc3[nH]cc(C(=O)OCC)c23)C1` [Example 1, ethyl (R)-4-((1-acryloylpiperidin-3-yl)amino)-7H-pyrrolo[2,3-d]pyrimidine-5-carboxylate], the IC50 on ITK was not above 10 nM; in test [1] (Homo sapiens, PBMC), 100 to 1000 nM; in test [2] (Homo sapiens, Jurkat), more than 1000 nM; on JAK3 it was not above 10 nM.
For `C=CC(=O)N1C[C@@H](Nc2ncnc3[nH]cc([C@H]4CC4(F)F)c23)CC[C@H]1C(C)C` (single isomer, unassigned) [Example 65], the half-inhibitory concentration (IC50) was not above 10 nM on ITK; 100 to 1000 nM in test [1] (Homo sapiens, PBMC); not above 100 nM in test [2] (Homo sapiens, Jurkat); not above 10 nM on JAK3.
